# Earlier results, collected in article PMC2766265 (Tetrahedron, 2008).
SMILES,agonist activity at the κ-opioid receptor (κ-opioid receptor),binding to any of the opioid-receptor subtypes (opioid-receptor subtypes)
"COC(=O)[C@@H]1C[C@H](OC(C)=O)C(=O)[C@H]2[C@@]1(C)CC[C@H]1C(=O)O[C@H](c3ccoc3)C[C@]21C [Compound 1, Salvinorin A]",potent and selective agonist,
"CC(=O)OC1C=CC2C(=O)OCC23CCC2C(=O)OC(c4ccoc4)C(OC(C)=O)C2(C)C13 (stereo not drawn) [Compound 3, splendidin]",,none of these diterpenes showed significant binding
"C[C@]12C[C@H](c3ccoc3)OC(=O)[C@H]1CC[C@@]13COC(=O)[C@@H]1C=CC[C@H]23 [Compound 2, salviarin]",,none of these diterpenes showed significant binding
